Laboratory results taken from US9068166B2, “Use of compounds for inducing differentiation of mesenchymal stem cells to chondrocytes” (Industry-Academic Cooperation Foundation Yonsei University, priority 2010, dated 2015).

Tests used:
[1] = tested on: fibronectin, α5-integrin, N-cadherin; experiment: Semi-quantitative RT-PCR of fibronectin, integrin α5β1 and N-cadherin in treated mesenchymal stem cells; assay type: cell-based, human; conditions: 1 μM for 11 days, normalized to GAPDH, FIG. 4
Experimental: (§1) 60 cc of an expanding solution (obtained by adding 30 mL of 1% lidocaine, 30 mL of 0.5% bupivacaine, 10 mL of 4.2% sodium bicarbonate and 1 mg of epinephrine to 1 L of normal water for injection) was applied to the periphery of a navel under sterile conditions. Fats were suctioned using Mercedes 3 mm×9 cm Aspiration Luer Lock Cannula (Byron Medical, Tucson, Ariz.), and then instantly kept on ice. Since a lipoaspirate filtered through a 250 mm sieve included an anesthetic and a contaminant such as blood, the lipoaspirate was washed with phosphate buffered saline (PBS) to remove the anesthetic and the contaminant. Collagenase I (1 mg/mL; Worthington Biochemical Corp., Lakewood, N.J.) was added to the obtained fat tissues, stirred, and then kept at 37° C. for an hour. The suspended adipose tissues were centrifuged at 1,500×g for 10 minutes, and a supernatant containing matured fat cells was discarded. The obtained stroma vascular (SV) cells were washed with 0.1% BSA, suspended in an M-199 medium (including 12.8% fetal bovine serum, heparin, 10,000 U/mL penicillin G, 25 mg/mL amphotericin B, and 10,000 mg/mL streptomycin), plated on a gelatin-coated tissue culture flask, and then incubated. After 24 hours, the tissue culture flask was washed to remove non-attached cells, and the incubation was continued.
When the mesenchymal stem cells were subcultured twice, the mesenchymal stem cells were seeded at a density of 2×10^5 cells/ml in a 60 mm plate containing the same medium as described above, and treated with the compound of Formula 1 (each of the compounds of Examples 1 to 28) at a final concentration of 10 nM, 100 nM, 1 μM, or 10 μM. In this case, the mesenchymal stem cells were incubated for 11 days while replacing a medium including the compound of Formula 1 with a fresh one once every 3 days.
Expression levels of various genes were analyzed through an RT-PCR method. Total RNA was obtained using an Ultraspect™-II RNA system (Biotecx Laboratories, Inc., USA) and an easy-BLUE™ kit (Intron Biotechnology, Seoul, South Korea). […]

[2] = tested on: human adipose tissue-derived mesenchymal stem cells; experiment: Alcian Blue dyeing of sulfated proteoglycan (quantified chondrogenesis); assay type: cell-based; conditions: 1 μM, 11 days, optical density at 650 nm, p<0.05 vs. control, FIG. 1
Experimental: as §1, with “The obtained stroma vascular (SV) cells were washed with 0.1% BSA, suspended in an M-199 medium (including 12.8% fetal bovine serum, heparin, 10,000 U/mL penicillin G, 25 mg/mL amphotericin B, and 10,000 mg/mL streptomycin), plated on a gelatin-coated tissue culture flask, and then incubated. After 24 hours, the tissue culture flask was washed to remove non-attached cells, and the incubation was continued.” left out
Cells were first washed three times with PBS (Gibco), and then immobilized with 100% methanol (Sigma) at −20° C. for 10 minutes. […] To quantify the dyeing intensity, the dyed culture plate was washed three times with PBS, and each well was extracted with 1 ml of 6 M guanidine-HCl (Sigma) overnight at room temperature. The optical density of the extracted dye was measured at 650 nm.

[3] = tested on: human adipose tissue-derived mesenchymal stem cells; experiment: Sandwich ELISA of aggrecan expression (chondrocyte marker) in treated mesenchymal stem cells; assay type: cell-based; conditions: for induction of differentiation of mesenchymal stem cells to chondrocytes (aggrecan expression) compared with A1942: sandwich ELISA, p<0.001 vs. control, FIG. 5
Experimental: as §1
[…] In this case, the mesenchymal stem cells were incubated for 11 days while replacing a medium including the compound of Formula 1 with a fresh one once every 3 days.
A capture antibody was bound to the bottom of each well, and the plate was then incubated overnight at 4° C. The plate was washed twice with PBS (Gibco), and treated with 100 μl of PBS containing 3% BSA at room temperature for 2 to 3 hours. The plate was washed twice with PBS, and a cell lysate was added to each well. Then, the plate was incubated at room temperature for 2 hours under a wet atmosphere. The plate was washed four times with PBS containing 0.02% Tween-20 (Sigma). A detector antibody was added to the plate, and the plate was then incubated at room temperature for 2 hours under a wet atmosphere. Thereafter, the plate was incubated with a peroxidase-conjugated secondary antibody at 37° C. for an hour. Finally, the plate was treated with 100 μl of a tetramethylbenzidine (TMB) solution (Sigma) as a substrate, and 25 μl of 0.1 M H2SO4 was added as a terminating buffer to stop the reaction. Immediately after the reaction, the absorbance was measured at 450 nm using an ELISA plate reader (Bio-Rad).

ERK = experiment: Western blotting of ERK phosphorylation in treated mesenchymal stem cells; assay type: cell-based, human; conditions: FIG. 3
Experimental: 60 cc of an expanding solution (obtained by adding 30 mL of 1% lidocaine, 30 mL of 0.5% bupivacaine, 10 mL of 4.2% sodium bicarbonate and 1 mg of epinephrine to 1 L of normal water for injection) was applied to the periphery of a navel under sterile conditions. Fats were suctioned using Mercedes 3 mm×9 cm Aspiration Luer Lock Cannula (Byron Medical, Tucson, Ariz.), and then instantly kept on ice. Since a lipoaspirate filtered through a 250 mm sieve included an anesthetic and a contaminant such as blood, the lipoaspirate was washed with phosphate buffered saline (PBS) to remove the anesthetic and the contaminant. […]
Cells were washed once with PBS, and lysed for approximately 20 minutes in a lysis buffer (Cell Signaling Technology) containing 20 mM Tris (pH 7.5), 150 mM NaCl, 1 mM Na2-EDTA, 1 mM EGTA, 1% Triton, 2.5 mM sodium pyrophosphate, 1 mM β-glycerophosphate, 1 mM Na3VO4, 1 mg/ml leupeptin and 1 mM phenylmethylsulfonyl fluoride. […] A concentration of proteins was measured using a Bradford protein assay kit (Bio-Rad). A quantitative protein was separated on a 12% sodium dodecyl sulfate-polyacrylamide gel, and transferred to a polyvinylidene difluoride membrane (Millipore). […] After thorough washing, a band was detected using an improved chemiluminogenic reagent (GE Healthcare Life Sciences). The intensity of the band was quantified using an Image J 1.40 g software (NIH).

O=S(=O)(Nc1ccc(O)cc1)c1cccc2cccnc12 [Compound A1942, Quinoline-8-sulfonic acid (4-hydroxy-phenyl)-amide]
expression level of N-cadherin [1]: decreased with time | expression level of fibronectin [1]: decreased with time | expression level of α5-integrin [1]: decreased with time | relative absorbance (Alcian Blue) versus control [2]: approximately 3 times | expression level of aggrecan ([3]; 0.1, 0.5 and 1 μM for 11 days, FIG. 2): increased in a dose-dependent manner | phosphorylation level of ERK (ERK; 1 μM for 11 days): increased with time

O=S(=O)(Nc1cccc2ccc(O)cc12)c1cccc2cccnc12 [Compound A1943, Quinoline-8-sulfonic acid (7-hydroxy-naphthalen-1-yl)-amide]
induction of differentiation of mesenchymal stem cells to chondrocytes (aggrecan expression) compared with A1942 [3]: at a level similar to the A1942 compound

O=C(O)c1cc(NS(=O)(=O)c2cccc3cccnc23)ccc1O [Compound A1944, 2-Hydroxy-5-(quinoline-8-sulfonylamino)-benzoic acid]
induction of differentiation of mesenchymal stem cells to chondrocytes (aggrecan expression) compared with A1942 [3]: at a level similar to the A1942 compound

CC(C)(C)c1ccc(S(=O)(=O)Nc2ccc(O)c(C(=O)O)c2)cc1 [Compound A1948, 5-(4-Tert-butyl-benzenesulfonyl-amino)-2-hydroxy-benzoic acid]
induction of differentiation of mesenchymal stem cells to chondrocytes (aggrecan expression) compared with A1942 [3]: at a level similar to the A1942 compound

O=S(=O)(Nc1cccc2c(O)cccc12)c1ccc(-c2ccccc2)cc1 [Compound A1949, Biphenyl-4-sulfonic acid (5-hydroxy-naphthalen-1-yl)-amide]
induction of differentiation of mesenchymal stem cells to chondrocytes (aggrecan expression) compared with A1942 [3]: at a level similar to the A1942 compound

Cc1ccc(S(=O)(=O)Nc2ccc(O)c3ccccc23)cc1 [Compound A1950, N-(4-hydroxy-naphthalen-1-yl)-4-methyl-benzenesulfonamide]
induction of differentiation of mesenchymal stem cells to chondrocytes (aggrecan expression) compared with A1942 [3]: at a level similar to the A1942 compound

N#CC(=C(/N)Sc1ccccc1N)/C(C#N)=C(\N)Sc1ccccc1N [Compound U0126, reference compound]
expression level of aggrecan, co-treatment with A1942 ([3]; mesenchymal stem cells treated with 1 μM A1942 + U0126, FIG. 2): reduced an expression level of the aggrecan | phosphorylation level of ERK, group treated with A1942 and U0126 (ERK; A1942 1 μM plus U0126, 11 days): did not increase with time
